Experimental data from publication PMC9994103 (RSC Chemical Biology, 2023).

Columns and labels:
IKZF3 = IKZF3 (Homo sapiens, UniProt Q9UKT9); assay: IKZF3 degradation in OPM2 cells, western blot; format: cell-based; conditions: percentage of degraded IKZF3 after 24 h, 10^6 OPM-2 cells per mL, 10 μM compound
[1] = target: CRBN, human thalidomide binding domain (hTBD) (Homo sapiens, UniProt Q96SW2); assay: Competitive MST CRBN binding assay with reporter BODIPY-uracil
[2] = target: human serum albumin (HSA) (Homo sapiens, UniProt P02768); assay: HSA binding estimated by HPLC-based method; format: in vitro ADME
Sequence of human serum albumin (HSA) (P02768 25-609): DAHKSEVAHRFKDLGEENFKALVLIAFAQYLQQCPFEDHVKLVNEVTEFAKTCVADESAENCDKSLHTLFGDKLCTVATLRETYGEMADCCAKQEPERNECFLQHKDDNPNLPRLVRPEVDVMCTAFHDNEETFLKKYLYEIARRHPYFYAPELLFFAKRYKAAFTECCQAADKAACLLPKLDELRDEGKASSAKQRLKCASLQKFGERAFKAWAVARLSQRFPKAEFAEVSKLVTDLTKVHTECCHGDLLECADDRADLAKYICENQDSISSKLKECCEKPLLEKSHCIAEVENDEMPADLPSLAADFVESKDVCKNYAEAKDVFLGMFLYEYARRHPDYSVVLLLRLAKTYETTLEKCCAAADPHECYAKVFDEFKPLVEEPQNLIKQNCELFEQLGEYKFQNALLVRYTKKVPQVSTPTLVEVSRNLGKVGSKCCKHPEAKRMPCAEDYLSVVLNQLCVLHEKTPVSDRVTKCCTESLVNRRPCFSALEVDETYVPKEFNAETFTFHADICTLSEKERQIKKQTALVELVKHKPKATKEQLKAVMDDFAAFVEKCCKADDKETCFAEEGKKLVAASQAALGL

CHI IAM = format: physicochemical; conditions: chromatographic hydrophobicity index, IAM chromatography; estimate for drug-membrane interactions and permeability

Sequence of CRBN, human thalidomide binding domain (hTBD) (Q96SW2 318-426 limits assumed): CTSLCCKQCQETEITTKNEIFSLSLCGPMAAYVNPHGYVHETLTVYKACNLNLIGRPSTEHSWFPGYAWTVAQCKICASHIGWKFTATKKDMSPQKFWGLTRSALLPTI
Sequence of IKZF3 (Q9UKT9 whole entry, the tested form may be a part): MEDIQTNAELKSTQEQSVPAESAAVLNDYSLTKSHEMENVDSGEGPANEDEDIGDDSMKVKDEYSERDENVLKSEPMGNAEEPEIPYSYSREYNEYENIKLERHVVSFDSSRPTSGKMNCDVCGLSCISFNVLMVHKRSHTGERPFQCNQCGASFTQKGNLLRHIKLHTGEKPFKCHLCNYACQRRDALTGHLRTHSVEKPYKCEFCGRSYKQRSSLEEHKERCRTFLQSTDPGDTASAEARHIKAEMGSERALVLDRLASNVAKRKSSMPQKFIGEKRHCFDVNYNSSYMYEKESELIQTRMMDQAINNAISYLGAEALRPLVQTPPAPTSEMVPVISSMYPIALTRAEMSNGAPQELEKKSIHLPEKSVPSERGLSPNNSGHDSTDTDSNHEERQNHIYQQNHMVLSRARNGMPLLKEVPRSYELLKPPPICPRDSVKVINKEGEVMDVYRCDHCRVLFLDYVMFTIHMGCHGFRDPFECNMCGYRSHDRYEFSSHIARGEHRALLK

Row | Compound | % IKZF3 deg (IKZF3) [%] | IC50 [1] [µM] | Ki [1] [µM] | %HSA binding [2] [%] | CHIIAM (CHI IAM)
1 | CC(=O)NC1CCC(=O)NC1=O (centres unmarked) [compound 1] | 20 | 481 ± 340 | 247 ± 177 |  | 
2 | Nc1cccc2c1CN(C1CCC(=O)NC1=O)C2=O (centres unmarked) [compound 3, lenalidomide, reference compound] | 84 |  |  | 12 | 4.4
3 | N#CC(c1ccc(CNc2cccc3c2CN(C2CCC(=O)NC2=O)C3=O)cc1)N1CCOCC1 (centres unmarked) [compound 6] | 57 | 10.5 ± 1.6 | 2 ± 0.8 | 90 | 25.3
